Test results published in patent US20140220108A1, “COCHLEATE COMPOSITIONS AND METHODS OF MAKING AND USING SAME” (priority 2011, published 2014).
Converted amounts (≈) assume the structure as drawn. Read-outs that look alike come from different tables or passages of the source.

Assays:
[1] = Encochleation efficiency by lipid composition, drug in supernatant after centrifugation; type: physicochemical; conditions: independent of the lipid composition of the PS vesicles
Experimental: For example, incorporation of phosphatidylserine (PS) combined with 99.9% pure dioleoyl PS, 99.9% pure soy PS, 75% soy PS and 50% soy PS, were used to manufacture cochleates. The lipid composition of 99.9% pure PS was modified by the addition of sphingomyelin, phosphatidylcholine and/or cholesterol. Encochleation efficiency was determined by assaying the concentration of drug in the supernatant following centrifugation.

[2] = test system: M. avium 109; assay: M. avium 109-infected mouse peritoneal macrophages (Raw 264.7), intracellular bacteria after 4 days of treatment; type: cell-based, Mycobacterium avium; conditions: inoculum 2.4 ± 0.3 × 10^5, untreated 3.1 ± 0.6 × 10^6
Experimental: (§1) Amikacin cochleate (Amkcch) formulations were optimized for amikacin encochleation efficiency and particle size by varying the type of PS used, the PS:drug ratio, PS:Ca ratio, and NaCl concentration. The efficacy of Amkcch against intracellular Ma infections was evaluated in vitro using mouse peritoneal macrophage infected with M. avium strains MAC 101 or MAC 109. Mouse peritoneal macrophages (Mo) Raw 264.7 cells were seeded at 10^5 cells/well. Mo monolayers were infected at ratio 1:10 for 1 h and extracellular bacteria removed. Monolayers were treated with free amikacin and/or cochleate preparations for 4 days and the number of intracellular bacteria determined. Assays were repeated three times.
as §1, with “The” for “Amikacin cochleate (Amkcch) formulations were optimized for amikacin encochleation efficiency and particle size by varying the type of PS used, the PS:drug ratio, PS:Ca ratio, and NaCl concentration. The”, “Amkcch against,” for “Amkcch against”, “1 hour” for “1 h”
The cochleate preparations used to evaluate biological activity against Mycobacterium avium in vitro included: 1. 2.0 ml/vial of 0 M NaCl amikacin formulation with 0.5 mg/ml; 2. […]

[3] = test system: M. avium 101; assay: M. avium 101-infected mouse peritoneal macrophages (Raw 264.7), intracellular bacteria after 4 days of treatment; type: cell-based, Mycobacterium avium
Experimental: as §1
as §1, with “The” for “Amikacin cochleate (Amkcch) formulations were optimized for amikacin encochleation efficiency and particle size by varying the type of PS used, the PS:drug ratio, PS:Ca ratio, and NaCl concentration. The”, “Amkcch against,” for “Amkcch against”, “1 hour” for “1 h”
The cochleate preparations used to evaluate biological activity against Mycobacterium avium in vitro included: 1. 2.0 ml/vial of 0 M NaCl amikacin formulation with 0.5 mg/ml; 2. 2.0 ml/vial of 0.066M NaCl amikacin formulation with 0.5 mg/ml; 3. 2.0 ml/vial of 0.33M NaCl amikacin formulation with 0.5 mg/ml; 4. 2.0 ml/vial of 0.66M NaCl amikacin formulation with 0.5 mg/ml; 5. 2.0 ml/vial of 0 M NaCl placebo formulation with 5 mg PS/ml; 6. 2.0 ml/vial of placebo formulation plus amikacin with 0.5 mg/ml; and 7. 2.0 ml/vial of free amikacin in water with 0.5 mg/ml.

[4] = test system: M. avium 101; assay: Splenic bacterial counts in M. avium 101-infected C57BL/6 mice; type: in vivo, Mycobacterium avium; conditions: 1 mg amikacin/mouse/day, 2 weeks, 3 weeks infected control 7.8 ± 0.4 × 10^7
[5] = test system: F. tularensis LVS; type: cell-based, Francisella tularensis; conditions: no treatment 3.0 ± 0.3 × 10^6
[6] = test system: M. avium; conditions: cited from earlier work
[7] = test system: MAC184 strain; assay: MIC against clarithromycin-resistant clinical isolate MAC184; parameters: species or system M. avium; conditions: Mycobacterium avium
[8] = test system: MAC 101; assay: MIC against susceptible M. avium strain MAC 101; conditions: Mycobacterium avium, such as MAC 101

Question: For C[C@@H]1[C@H](O)[C@@H](C)/C=C/C=C/C=C/C=C/C=C/C=C/C=C/[C@H](O[C@@H]2O[C@H](C)[C@@H](O)[C@H](N)[C@@H]2O)C[C@@H]2O[C@](O)(C[C@@H](O)C[C@@H](O)[C@H](O)CC[C@@H](O)C[C@@H](O)CC(=O)O[C@H]1C)C[C@H](O)[C@H]2C(=O)O [AmB, Amphotericin B], which encochleation efficiency [1] is on record?
Answer: greater than 85%

Question: Which “# bacteria day 4” value ([2]; 10 μg/l) does the source give for NCC[C@H](O)C(=O)N[C@@H]1C[C@H](N)[C@@H](O[C@H]2O[C@H](CN)[C@@H](O)[C@H](O)[C@H]2O)[C@H](O)[C@H]1O[C@H]1O[C@H](CO)[C@@H](O)[C@H](N)[C@H]1O [Free amikacin, amikacin] here?
Answer: 5.0 ± 0.3 × 10^4

Question: What about the “# bacteria day 4” value ([2]; 20 μg/l) of the same molecule?
Answer: 2.9 ± 0.4 × 10^4

Question: What about the “# bacteria day 4” value ([3]; 20 μg/l, inoculum 3.8 ± 0.4 × 10^5, untreated 4.9 ± 0.5 × 10^6) of the same molecule?
Answer: 3.8 ± 0.5 × 10^4

Question: What about the “# bacteria day 4” value ([3]; inoculum 3.8 ± 0.4 × 10^5, untreated 4.9 ± 0.5 × 10^6) of the same molecule?
Answer: 4.9 ± 0.3 × 10^4

Question: And the CFU/spleen ([4]; I.P.)?
Answer: 9.3 ± 0.4 × 10^6 CFU/spleen

Question: And the CFU/spleen ([4]; oral)?
Answer: 6.9 ± 0.3 × 10^7 CFU/spleen

Question: What about the “intracellular bacteria Day 4” value ([5]; amikacin 4 μg/ml) of the same molecule?
Answer: 7.6 ± 0.3 × 10^2 CFU/ml

Question: And the frequency of resistance [6]?
Answer: 10^−11

Question: With CC[C@@H](CO)NCCN[C@@H](CC)CO [ethambutol] as the molecule, how does the MIC [7] read?
Answer: 8 µg/mL (≈ 39.2 µM)

Question: And the MIC [8]?
Answer: 4 µg/mL (≈ 19.6 µM)

Question: For gentamicin [Free gentamicin], which “# bacteria day 4” value ([3]; gentamicin 30 μg/ml (30 μg/l in two rows), untreated 6.4 ± 0.5 × 10^6) is on record?
Answer: 1.9 ± 0.3 × 10^5

Question: And the “intracellular bacteria Day 4” value ([5]; gentamicin 2 μg/ml)?
Answer: 9.3 ± 0.3 × 10^2 CFU/ml
